In patent US8598122B2, “Antagonistic peptides for frizzled-1 and frizzled-2” (Universiteit Maastricht, priority 2009, dated 2013):
Entries after “also recorded” stand apart in the source; their conditions may differ. Where a SMILES comes first, the peptide text is derived from it.

Legend:
[1] = Pharmacokinetics assay in mice
Method: (§3) UM206 was injected into the femoral artery of Swiss mice (concentration of 10^−9 M). Blood was sampled at different time points in the femoral vein. On the y-axis, the concentration of UM206 in the plasma is shown. This is determined with HPLC and the area under the peak is calculated and shown on the y-axis. All values were corrected for the baseline value.
(§4) In order to determine the pharmacokinetic properties of UM206, we injected 15 ng of the compound into the tail vein of mice and monitored the concentration in the blood at different time points.
(§5) Male Swiss mice were used (10-12 weeks of age, Charles River, Maastricht, The Netherlands).
(§6) Blood samples were collected from the animals for the pharmacokinetics and after 14 to 35 days treatment, to determine the concentration of UM206. Blood was centrifuged and the plasma was treated with 1% TFA.

hFzd-5 = target: T1, hFzd-5 (Homo sapiens, UniProt Q13467); assay: Luciferase activity in HEK293 superTOPflash cells overexpressing hFzd-5; type: cell-based; details: 1.10^−8 M
T1 construct: expressed in transfected cells; host or cells: HEK293 superTOPflash, transient, pcDNA3.0
T1 sequence (Q13467 27-585): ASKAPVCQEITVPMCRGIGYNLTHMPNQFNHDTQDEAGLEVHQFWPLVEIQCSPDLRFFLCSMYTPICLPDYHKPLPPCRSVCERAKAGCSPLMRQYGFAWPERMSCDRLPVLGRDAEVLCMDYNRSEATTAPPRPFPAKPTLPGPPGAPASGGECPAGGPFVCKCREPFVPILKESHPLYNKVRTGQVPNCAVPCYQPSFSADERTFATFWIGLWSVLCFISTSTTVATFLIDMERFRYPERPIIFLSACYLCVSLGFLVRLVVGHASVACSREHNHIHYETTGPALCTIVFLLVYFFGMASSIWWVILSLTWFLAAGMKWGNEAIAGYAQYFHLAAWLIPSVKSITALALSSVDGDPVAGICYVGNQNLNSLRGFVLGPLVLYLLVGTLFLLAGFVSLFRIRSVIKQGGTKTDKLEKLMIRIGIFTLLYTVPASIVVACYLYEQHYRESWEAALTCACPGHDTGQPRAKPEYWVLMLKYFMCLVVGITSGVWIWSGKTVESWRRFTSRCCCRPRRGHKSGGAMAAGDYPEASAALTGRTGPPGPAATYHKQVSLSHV
Method: (§1) In FIG. 3, Panel E, the efficacy of UM206 to block the Wnt3a-induced activation of luciferase activity in HEK293 superTOPflash cells transfected with different Fzds is shown.
(§2) The cell lines were cultured in 75 cm^2 culture flasks (Corning, Schiphol, the Netherlands) in Dulbeco's modified essential medium with L-glutamine (2 mM), 10% fetal calf serum (Invitrogen, Merelbeke, Belgium), and 1% gentamycin (Sigma-Aldrich, Zwijndrecht, The Netherlands). Before starting the experiment, the cell lines were treated with plasmocin 25 μg/ml (Invivogen, Toulose, France) and tested with a mycoalert mycoplasma detection kit (Lonza, Rockland Me., USA). Cells were transiently transfected with Fugene6 (Roche, Indianapolis Ind., USA) with plasmid DNA, pcDNA3.1/hygro (Invitrogen) with frizzled-1/2/4 or Wnts 3a-5a or with pcDNA3.0 (Invitrogen) containing the β-catenin or frizzled-5 sequence. After transfection, the cells were cultured for 24 hours in conditioned medium, collected from the cultured L-cells, L-cells with Wnt3a or 5a (Invitrogen). At the same moment the antagonist was added.

Pharmacokinetics in rats = type: in vivo
frizzled-2 (rFzd-2) = target: T2, frizzled-2 (rFzd-2) (Rattus norvegicus, UniProt Q08464); assay: Activity assay: Wnt3a-induced luciferase (superTOPflash) in HEK cells transfected with frizzled-2; type: cell-based
T2 construct: expressed in transfected cells; host or cells: HEK293 superTOPflash (human embryonic kidney), transient, pcDNA3.1/hygro
T2 sequence (Q08464 29-570): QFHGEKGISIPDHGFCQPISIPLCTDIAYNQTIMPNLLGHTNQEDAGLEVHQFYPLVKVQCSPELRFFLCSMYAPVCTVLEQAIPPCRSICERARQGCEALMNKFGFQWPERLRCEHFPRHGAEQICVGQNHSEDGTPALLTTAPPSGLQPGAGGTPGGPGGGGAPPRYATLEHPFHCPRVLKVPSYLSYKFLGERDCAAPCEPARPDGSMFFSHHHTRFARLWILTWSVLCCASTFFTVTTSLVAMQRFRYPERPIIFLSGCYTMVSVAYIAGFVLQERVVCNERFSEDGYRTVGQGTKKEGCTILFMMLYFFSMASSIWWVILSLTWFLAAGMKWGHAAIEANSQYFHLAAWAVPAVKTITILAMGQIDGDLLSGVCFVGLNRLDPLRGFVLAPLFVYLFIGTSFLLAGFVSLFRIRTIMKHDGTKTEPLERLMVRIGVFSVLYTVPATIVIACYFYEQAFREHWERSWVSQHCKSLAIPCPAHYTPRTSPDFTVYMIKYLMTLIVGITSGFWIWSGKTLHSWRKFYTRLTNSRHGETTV
Method: Human embryonic kidney (HEK) cells were used for screening. These cells have a luciferase construct stably transfected into the genome (see FIG. 2A), such that when the frizzled receptor is activated and β-catenin is increased, the luciferase is activated by transcription and light can be measured.
The peptides were tested by transfecting the frizzled-1 or the frizzled-2 receptor and addition of UM206(S-S) to the cell culture. For testing antagonistic activity, UM206 was added and the natural ligand Wnt3a was added, which is a natural stimulus for the canonical pathway.
Day 2: Transfection 12-well plates • heat Fugene6 and DNA 15 minutes at RT • 2 ml serum-free medium in tube • add 3μl fugene • add 2 μg DNA • incubate 30 minutes at RT • wash with PBS • add 50 μtransfectiemix • add 1 ml antibiotica-free medium
Day 3: Add conditioned medium or UM206
Day 4: Luciferase activity measurements • remove medium • wash with PBS • add 500 μl ⅕ lysisbuffer • shake for 60 minutes • centrifuge in tube • 20 μl lysaat and 50 μl luciferase in new tube for measurement • vortex • measure
To determine the inhibitory constant of UM206-8, HEK293-superTOPflash cells were transfected with either rFzd-1 or -2 and incubated with Wnt3a (10^−9M) in the presence of increasing concentrations of either of the peptides (FIG. 15). For UM206, a biphasic inhibition curve was observed that was best fitted with a two-binding-state model.
as §2

small intestine = assay: qPCR of Wnt target genes in small intestine after long-term UM206 administration; type: in vivo, mice; design: key to Rel. exp. Col I: expression normalized to cyclophilin housekeeping gene; key to Rel. exp. Inos / Rel. exp. CD 44 / Rel. exp. Axin 2 / Rel. exp. Itm 2A / Rel. exp. Mmp 2 / Rel. exp. Ascl 2 / Rel. exp. Dvl 2: relative expression, cyclophilin as housekeeping gene
Text: This was confirmed by histological analysis of the infarct area.
RNA was isolated using the Trizol method (Invitrogen). For the RT-PCR, the RNA was transcribed to cDNA with iscript™ cDNA synthesis kit (Bio-Rad, Hercules Calif., USA), Syber green (Eurogentec, Ghent, Belgium) was used for the detection of cDNA levels and cyclophilin served as the house keeping gene. In Supplementary methods panel 5, the primer sequences are shown.

hFzd-4 = target: T3, hFzd-4 (Homo sapiens, UniProt Q9ULV1); assay: Luciferase activity in HEK293 superTOPflash cells overexpressing hFzd-4; type: cell-based; details: 1.10^−8 M
T3 construct: expressed in transfected cells; host or cells: HEK293 superTOPflash, transient, pcDNA3.1/hygro
T3 sequence (Q9ULV1 37-537): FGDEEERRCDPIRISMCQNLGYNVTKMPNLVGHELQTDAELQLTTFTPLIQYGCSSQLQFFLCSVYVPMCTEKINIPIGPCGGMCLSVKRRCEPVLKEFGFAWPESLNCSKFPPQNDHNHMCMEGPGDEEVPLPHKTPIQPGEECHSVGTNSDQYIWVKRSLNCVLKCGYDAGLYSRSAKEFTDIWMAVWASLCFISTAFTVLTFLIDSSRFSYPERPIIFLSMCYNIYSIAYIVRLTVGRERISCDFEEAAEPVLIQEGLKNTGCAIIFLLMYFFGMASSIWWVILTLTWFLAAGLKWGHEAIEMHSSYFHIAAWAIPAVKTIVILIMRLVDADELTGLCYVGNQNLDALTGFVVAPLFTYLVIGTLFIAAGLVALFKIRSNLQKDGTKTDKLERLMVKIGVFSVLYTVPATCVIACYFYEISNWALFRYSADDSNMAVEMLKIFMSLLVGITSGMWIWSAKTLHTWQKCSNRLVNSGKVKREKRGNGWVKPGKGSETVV
Method: as §1, §2

[2] = mouse, in vivo
Method: as §3, §4, §5, §6

129S6 mice = assay: Infarct rupture in 129S6 mice; type: in vivo; details: infarct rupture frequency ˜60%, unpublished observations
Text: Because of the lack of pharmacological tools to intervene in Wnt/Fzd signaling in vivo, only genetic interventions have been reported so far in studies on the role of Wnt signaling in infarct healing. Barandon et al. were the first to show a beneficial effect of overexpression on infarct healing of FrzA, a bovine homologue of soluble frizzled-related protein-1 (sFRP1). They observed a decreased infarct size with elevated numbers of myofibroblasts and increased angiogenesis in the infarcted FrzA transgenic mice (Barandon et al., 2003), which could be confirmed in the present study using an Fzd-1 and -2 antagonist. […] In the mean time, the beneficial effects of sFRP overexpression on infarct healing have been confirmed by Kobayashi et al. (Kobayashi et al., 2009). Taken together, these reports support the observations of the present study and point to a beneficial effect of inhibiting Wnt/Fzd signaling on the wound-healing process after MI.

CSCC[C@H](NC(=O)CNC(=O)[C@H](CCC(=O)O)NC(=O)[C@H](CO)NC(=O)[C@@H](NC(=O)[C@H](CCCCN)NC(=O)[C@H](CC(N)=O)NC(=O)[C@H](CS)NC(C)=O)[C@@H](C)O)C(=O)N[C@@H](CC(=O)O)C(=O)NCC(=O)N[C@@H](CS)C(=O)N[C@@H](CCC(=O)O)C(=O)N[C@@H](CC(C)C)C(N)=O [UM206, Ac-Cys-Asn-Lys-Thr-Ser-Glu-Gly-Met-Asp-Gly-Cys-Glu-Leu-NH2] (Ac-CNKTSEGMDGCEL-NH2)
half-life ([1]; 15 ng into the tail vein of mice, HPLC, n=24): 1.39 h
half-life ([1]; male, Swiss, mouse, plasma): ~1.5 h
half-life ([1]; male, Swiss, mouse, plasma, intravenous, 15 ng): 1.39 ± 0.0272 h
Effect on Wnt3a-induced luciferase activity, frizzled-5 (hFzd-5): no effect
half-life (Pharmacokinetics in rats): around 90 minutes
Higher affinity for rFzd-2 than for rFzd-1 (frizzled-2 (rFzd-2)): ~100 fold
Selectivity frizzled-2 over frizzled-1 (frizzled-2 (rFzd-2)): slightly more selective for frizzled-2 over frizzled-1
Blocking of Wnt3a-induced luciferase activity, frizzled-2 (frizzled-2 (rFzd-2); increasing amounts of antagonist): completely and concentration-dependently blocked
Blocking of Wnt3a-induced luciferase activity, rFzd-2 (frizzled-2 (rFzd-2); peptide 1.10^−8 M): blocked almost completely; also recorded: abolished the induction of luciferase activity almost completely
Effect of the antagonist on its own on luciferase activity (frizzled-2 (rFzd-2); without Wnt3a): no effect
influence on the expression patterns in the small intestine (small intestine; UM206 for five weeks): These data indicate that UM206 had no influence on the expression patterns in the small intestine.
Rel. exp. Ascl 2 (small intestine; small intestine): 1.42
Rel. exp. Axin 2 (small intestine; small intestine): 1.05
Rel. exp. CD 44 (small intestine; small intestine): 1.22
Rel. exp. Col I (small intestine; small intestine): 1.32
Rel. exp. Dvl 2 (small intestine; small intestine): 1.13
Rel. exp. Inos (small intestine; small intestine): 1.18
Rel. exp. Itm 2A (small intestine; small intestine): 0.97
Rel. exp. Mmp 2 (small intestine; small intestine): 1.32
Effect on Wnt3a-induced luciferase activity, frizzled-4 (hFzd-4): no effect
time until steady state is reached [2]: ~10 h
number of ruptured infarcts (129S6 mice): did not reduce the number of ruptured infarcts
